Test systems include T-47D breast; OVCAR-5 ovarian; KM12 colon; CCRF-CEM leukemia; EKVX NSCLC; DU-145 prostate; HOP-62 NSCLC; SK-MEL-5 melanoma; NCI/ADR-RES ovarian; UO-31 renal; PC-3 prostate; HOP-92 NSCLC; M14 melanoma; LOX IMVI melanoma; HS 578T breast; A498 renal; SF-539 CNS.
What all share (test): DTP human tumour cell line panel, 48 h

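Grown in 96-well plates, cells were treated for 48 hours with each compound at five concentrations. Insufficient inhibition: endpoint recorded as highest concentration tested. TGI is the concentration that stops growth completely.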 A value given as a limit tells only on which side of the number the result lay.

Take `CC1(C)CO[P@@](=S)(c2ccccn2)O[C@@H]1c1ccccc1`: the concentration for total growth inhibition (TGI) in the assay with T-47D breast, with OVCAR-5 ovarian, with KM12 colon, in the assay with CCRF-CEM leukemia, in the assay on EKVX NSCLC and with DU-145 prostate was more than 100 µM each time. Further, the TGI with HOP-62 NSCLC, with SK-MEL-5 melanoma, in the assay with NCI/ADR-RES ovarian, in the assay with UO-31 renal, with PC-3 prostate and in the assay with HOP-92 NSCLC was more than 100 µM each time. Besides, the concentration for total growth inhibition (TGI) in the assay with M14 melanoma, in the assay on LOX IMVI melanoma, with HS 578T breast and in the assay on A498 renal was more than 100 µM each time.
Turning to `CC1CN=C(Nc2cccc(F)c2)S1` (stereo not given), the TGI in the assay on T-47D breast, with OVCAR-5 ovarian, in the assay on KM12 colon, in the assay on CCRF-CEM leukemia, in the assay on EKVX NSCLC and in the assay with DU-145 prostate was more than 100 µM throughout. The total growth inhibition concentration (TGI) in the assay with HOP-62 NSCLC, in the assay on SK-MEL-5 melanoma, in the assay with NCI/ADR-RES ovarian, in the assay with UO-31 renal, with PC-3 prostate and with HOP-92 NSCLC was more than 100 µM each time. Further, the total growth inhibition concentration (TGI) with SF-539 CNS, in the assay on M14 melanoma, in the assay on LOX IMVI melanoma and in the assay with HS 578T breast was more than 100 µM in each case.
For `Nc1[nH]c(=O)nc2snnc12`, the TGI in the assay with T-47D breast, in the assay on OVCAR-5 ovarian, with KM12 colon, in the assay on CCRF-CEM leukemia, in the assay on EKVX NSCLC and in the assay on DU-145 prostate was more than 100 µM in each case. Moreover, the concentration for total growth inhibition (TGI) (usually the concentration giving total growth inhibition) in the assay with HOP-62 NSCLC is more than 100 µM; with SK-MEL-5 melanoma, more than 100 µM; with NCI/ADR-RES ovarian, more than 100 µM; with UO-31 renal it was more than 31.2 µM; in the assay with PC-3 prostate, more than 100 µM; in the assay on HOP-92 NSCLC, more than 100 µM. Besides, the TGI in the assay on SF-539 CNS is more than 100 µM; in the assay on M14 melanoma it was more than 100 µM; in the assay on LOX IMVI melanoma, 65.2 µM; in the assay on HS 578T breast, more than 100 µM.
For `COC1(C2c3ccccc3CCN2C(=O)OC(C)(C)C)C(=O)C(c2ccccc2)=C1N(C)C` (stereo not given), the TGI with T-47D breast, in the assay with OVCAR-5 ovarian, in the assay with KM12 colon, in the assay on CCRF-CEM leukemia, in the assay with EKVX NSCLC and in the assay on DU-145 prostate was more than 100 µM throughout. In addition, the TGI in the assay with HOP-62 NSCLC is more than 100 µM; in the assay on SK-MEL-5 melanoma it was 58.9 µM; in the assay with NCI/ADR-RES ovarian it was 57.9 µM; in the assay on UO-31 renal it was 64.4 µM; with PC-3 prostate, 82.4 µM; with HOP-92 NSCLC, 86.2 µM. Moreover, the TGI was 47.6 µM in the assay on SF-539 CNS, more than 100 µM with M14 melanoma, 96.9 µM in the assay on HS 578T breast and 62.6 µM in the assay with A498 renal.
In the case of `COC(=O)C1Cc2c(OC)ccc(OC)c2C(O)C1C(=O)OC` (stereo not given), the total growth inhibition concentration (TGI) in the assay on T-47D breast, in the assay on OVCAR-5 ovarian, in the assay with KM12 colon, in the assay on CCRF-CEM leukemia, with EKVX NSCLC and with DU-145 prostate was more than 100 µM throughout. In addition, the concentration for total growth inhibition (TGI) in the assay on HOP-62 NSCLC, with SK-MEL-5 melanoma, in the assay on NCI/ADR-RES ovarian, in the assay on UO-31 renal, with PC-3 prostate and with HOP-92 NSCLC was more than 100 µM in each case. Also, the TGI in the assay on SF-539 CNS, in the assay with M14 melanoma, in the assay on LOX IMVI melanoma and with HS 578T breast was more than 100 µM each time.
With `Oc1[nH]c2ccccc2c1C1=Nc2ccccc2/C1=N\OCCOC1OCC(O)C(O)C1O` (stereo not given), the total growth inhibition concentration (TGI) with T-47D breast, in the assay with OVCAR-5 ovarian, with KM12 colon, in the assay on CCRF-CEM leukemia, in the assay with EKVX NSCLC and with DU-145 prostate was more than 100 µM each time. Also, the TGI in the assay on HOP-62 NSCLC, in the assay on SK-MEL-5 melanoma, with NCI/ADR-RES ovarian, with UO-31 renal, in the assay on PC-3 prostate and with HOP-92 NSCLC was more than 100 µM each time. The TGI in the assay on SF-539 CNS, in the assay with M14 melanoma, in the assay on LOX IMVI melanoma and with HS 578T breast was more than 100 µM each time.
As for `CC1(C)CC(=O)c2c(nc3c(ccc4ccccc43)c2-c2ccc(NC(=O)CCC(=O)Nc3ccc(-c4c5c(nc6c4ccc4ccccc46)CC(C)(C)CC5=O)cc3)cc2)C1`, the TGI in the assay on T-47D breast, in the assay with OVCAR-5 ovarian, with KM12 colon, with CCRF-CEM leukemia, in the assay with EKVX NSCLC and in the assay with DU-145 prostate was more than 100 µM throughout. In addition, the concentration for total growth inhibition (TGI) with HOP-62 NSCLC, with SK-MEL-5 melanoma, with NCI/ADR-RES ovarian, in the assay with UO-31 renal, in the assay with PC-3 prostate and in the assay with HOP-92 NSCLC was more than 100 µM in each case. In addition, the TGI with SF-539 CNS, in the assay on M14 melanoma, in the assay with LOX IMVI melanoma and with HS 578T breast was more than 100 µM each time.
With `COc1ccc(-c2oc3cc(OC)c(OC)c(O)c3c(=O)c2OC)cc1`, the concentration for total growth inhibition (TGI) in the assay on T-47D breast, in the assay on OVCAR-5 ovarian, with KM12 colon, in the assay with CCRF-CEM leukemia, with EKVX NSCLC and with DU-145 prostate was more than 100 µM in each case. The total growth inhibition concentration (TGI) is more than 100 µM in the assay on HOP-62 NSCLC; more than 100 µM in the assay on SK-MEL-5 melanoma; more than 100 µM in the assay with NCI/ADR-RES ovarian; more than 100 µM with UO-31 renal; more than 100 µM in the assay with PC-3 prostate; 33.8 µM in the assay on HOP-92 NSCLC. For the same compound, the concentration for total growth inhibition (TGI) in the assay with SF-539 CNS is more than 100 µM; with M14 melanoma, more than 100 µM; in the assay with LOX IMVI melanoma, more than 100 µM; with HS 578T breast it was 72.3 µM.
On to `COc1ccc2cc(CNCCCCCCCCNCc3ccc4cc(OC)ccc4c3)ccc2c1`, for which the TGI in the assay on T-47D breast is 91 µM; with OVCAR-5 ovarian, 10.1 µM; with CCRF-CEM leukemia, 7.27 µM; in the assay with DU-145 prostate, more than 100 µM; with HOP-62 NSCLC, 10.2 µM; in the assay with SK-MEL-5 melanoma, more than 100 µM. Further, the concentration for total growth inhibition (TGI) with NCI/ADR-RES ovarian was more than 100 µM; in the assay on PC-3 prostate, 6.91 µM; with HOP-92 NSCLC it was 10 µM; with LOX IMVI melanoma, 43.4 µM; in the assay with HS 578T breast, more than 20.8 µM; in the assay with A498 renal, 9.68 µM.

For the origin of these results see PubChem BioAssay (NCI).
